1 compound from paper doi:10.64898/2026.03.17.711623, “Polypharmacology is an enduring and nearly universal property of kinase inhibitors” (bioRxiv, 2026) can be followed below.

The target of the assay is T1, YES (Homo sapiens, UniProt P07947).
T1 construct: gene YES1
T1 sequence (P07947 whole entry): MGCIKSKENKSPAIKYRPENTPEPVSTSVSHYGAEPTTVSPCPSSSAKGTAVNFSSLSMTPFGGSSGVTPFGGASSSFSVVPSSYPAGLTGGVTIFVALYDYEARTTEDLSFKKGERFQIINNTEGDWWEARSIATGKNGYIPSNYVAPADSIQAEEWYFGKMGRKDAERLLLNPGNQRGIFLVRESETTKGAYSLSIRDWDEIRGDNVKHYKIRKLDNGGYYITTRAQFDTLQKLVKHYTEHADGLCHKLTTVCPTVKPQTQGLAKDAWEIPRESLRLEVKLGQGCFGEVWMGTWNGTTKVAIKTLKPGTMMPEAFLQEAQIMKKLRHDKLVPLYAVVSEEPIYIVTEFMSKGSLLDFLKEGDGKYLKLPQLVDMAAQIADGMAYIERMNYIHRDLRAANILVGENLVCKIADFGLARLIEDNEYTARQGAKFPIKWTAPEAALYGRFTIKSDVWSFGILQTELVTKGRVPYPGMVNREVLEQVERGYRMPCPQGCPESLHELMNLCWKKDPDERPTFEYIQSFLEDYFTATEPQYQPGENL

`Cc1cc(C(=O)Nc2cc(Oc3ccc4nc(NC(=O)C5CC5)cn4n3)ccc2C)n(C)n1` [HMSL12071, TAK-593] showed a Kd of 423 nM.

One may read the Kd as a measure of binding affinity in units of concentration. A higher Kd goes with a looser complex.
